Laboratory results: paper PMC4841536, “Characterization of the Anti-HCV Activities of the New Cyclophilin Inhibitor STG-175” (PLoS ONE, 2016)
Like-named read-outs stand apart in the source and are kept apart here.

Tests used:
[1] = alamarBlue cytotoxicity (CC50), GT2a replicon cell line; conditions: human
Protocol: (§1) The anti-HCV activity of STG-175 was conducted using a panel of luciferase reporter replicon cell lines including GT1a, GT1b, GT2a, GT3a and GT4a as we described previously. The GT1a subgenomic renilla luciferase reporter replicon H77 RLucP (7) was supplied by Dr. Delaney. The GT1b subgenomic firefly luciferase reporter replicon pFK-I389/NS3-3’ [29] was supplied by Dr. Bartenschlager. The GT1B subgenomic NS3, NS5A and NS5B mutants were created via homologous recombination using the In-Fusion HD Cloning kit (Clontech) as we described previously. The GT2a genomic luciferase reporter replicon Luc-Neo-JFH-1 was generated as previously. The plasmid pFK-Luc-JFH1 was supplied from Drs. […] The CellTiter-Fluor™ Cell Viability Assay is a non-lytic fluorescence assay, which measures the number of live cells. […] Luciferase activity was determined using the Luciferase Assay System (Promega) in a Berthold luminometer. […] Viable cells continuously convert resazurin to resorufin, increasing the overall fluorescence and color of the media surrounding cells.
(§2) Fig 2 Anti-HCV activities of STG-175 among GTs. […] Luciferase activity was determined using the Luciferase Assay System in a Berthold luminometer. […] Data are expressed as mean of relative light units and calculated EC50s are presented. […]

[2] = test system: GT2a replicon cell line; test: as above; conditions: GT2a replicon cell line
Protocol: as §1, §2

[3] = test system: D320E NS5A Con1 GT1b replicon; test: microbe, parasite or virus in culture; assay type: cell-based, hepatitis C virus; conditions: for EC50: Hepatitis C virus, GT1B
From the text: The GT1b subgenomic firefly luciferase reporter replicon pFK-I389/NS3–3 was provided by R. Bartenschlager. The GT1B subgenomic NS3, NS5A and NS5B mutants were created via homologous recombination using the In-Fusion HD Cloning kit (Clontech) as we described previously. […] The in vitro transcription of wild-type and mutant Con1 RNA was accomplished using the T7 MEGAscript kit (Ambion) by following the manufacturer’s instructions. In vitro-transcribed RNAs were introduced into Huh7.5.1 cells by electroporation. Trypsinized cells were washed twice and resuspended in phosphate-buffered saline (PBS) (calcium-free and magnesium-free) at 1x 10^7 cells per ml. Ten micrograms of RNA for each mutant was mixed with 0.4 mL of cells in a 4-mm cuvette, and a Bio-Rad Gene Pulser system was used to deliver a single pulse at 0.27 kV, 100 ohms, and 960 μF. Cells were then plated in 12-well dishes. RNA transfection efficiency and HCV subgenomic replication were assessed by reverse transcription-quantitative PCR (RT-qPCR) and presented as genome equivalents (GE) per microgram of total RNA as described previously. We measured by RT-qPCR the replication of wild-type, STG-175-, NS5Ai-, NS3i- and NS5Bi-resistant mutants in the presence of increasing concentrations of SGT-175, daclatasvir, telaprevir, boceprevir and sofosbuvir over a period of 8 days.
D320E and D320E/Y321N NS5A substitutions were introduced into wild-type Con1 GT1 replicon as we described previously. Con1-NS5A-D320E, and Con1-NS5A-D320E/Y321N were generated using the following forward and reverse phosphorylated (p) primer sets, respectively: (p)[…] and (p)[…], and (p)[…] and (p)[…]. PCR products were circularized with Quick T4 DNA ligase (NEB) for 5 min and transformed into NEB 10-beta competent cells. The NS5A gene was sequenced to confirm the introduced substitutions.
Fig 3 Replicon clearance, replication rebound and resistance analyses. […] Then drugs were removed to allow viral replication rebound to occur. At each passage, samples of cells were collected, RNA extracted and analyzed by RT-PCR for HCV RNA levels. B. Emergence of resistance: Con1 replicon Huh-7 cells were passaged 22 times in the absence or presence of STG-175 or selected DAAs. At each passage, sample of cells were collected, RNA extracted and analyzed by RT-PCR for HCV RNA levels. C. […] Data are expressed as number of HCV RNA copies per cell. […] Data are expressed as mean of relative light units and calculated EC50s are presented. […] E. Degree of resistance of D320E and Y321N Con1 variants: Left panel. Wild-type (WT), D320E and D320/Y321N NS5A Con1 RNA were electroporated into Huh7.5.1 cells and replication monitored over 8 days by quantifying the levels of intracellular HCV RNA. Right panel. Same as just above except that increasing concentrations of STG-175 were added at the time of the electroporation. […] STG-175 is taken as the substance from the printed x-axis title 'STG-175 in Log nM'.
To determine whether the D320E and Y321N substitutions truly render HCV resistant to STG-175, they were introduced into wild-type Con1 replicon as we described previously. Introduction of the substitutions was verified by sequencing.

CC=CCC(C)C(O)C1C(=O)NC(CC)C(=O)N(C)C(CSCCCCO)C(=O)N(C)C(CC(C)(C)O)C(=O)NC(C(C)C)C(=O)N(C)C(CC(C)C)C(=O)NC(C)C(=O)NC(C)C(=O)N(C)C(CC(C)C)C(=O)N(C)C(CC(C)C)C(=O)N(C)C(C(C)C)C(=O)N1C (stereo not shown) [STG-175]
CC50 at 72 h [1]: > 10000 nM
cell viability toward increasing doses (alamarBlue) [2]: lack of cellular cytotoxicity
EC50 ([3]; Huh-7.5.1, 144 h, read-out: EC50, D320E replicon): 61.6 nM
EC50 ([3]; Huh-7.5.1, 192 h, read-out: EC50, D320E replicon): 83.2 nM
EC50 ([3]; Huh-7.5.1, 192 h, read-out: EC50 D320E NS5A): 62.8 nM
fold more resistant than wild-type replicon, D320E ([3]; day 6): 1.7 fold
fold more resistant than wild-type replicon, D320E ([3]; day 8): 2.4 fold
